The text below walks through data of patent US20220265692A1, “ORALLY-ADMINISTERED PHARMACEUTICAL COMPOSITION FOR ERADICATING ANTIBIOTIC-RESISTANT HELICOBACTER PYLORI, COMPRISING COMPLEX OF NON-ABSORBABLE ANTIBIOTIC AND CLAY MINERAL” (priority 2019, published 2022).

One assay concerns Helicobacter pylori. The conditions noted are these: general statement; cited from earlier work.
Assay [1] deals with Helicobacter pylori clinical strains. The assay can be described thus: Evaluation of antibiotic resistant rate (in vitro MIC, 187 clinical strains). The assay is classed as cell-based. How it is done: Complexes of antibiotics (amoxicillin, clarithromycin, metronidazole, levofloxacin, and tetracyclin) and smectite which have been actually used for Helicobacter eradication treatment in current clinical trials were prepared and in vitro MIC for non-absorbable antibiotic candidate groups gentamicin, netilmicin, tobramycin, amikacin) to be used as a novel therapeutic agent was measured, and MIC50 and MIC90 were confirmed. To this end, 187 cultured positive clinical strains obtained from 1,265 patient samples were used.

Assay [2] has as its system clarithromycin-resistant Helicobacter pylori. The assay can be described thus: Eradication activity in vitro on clarithromycin-resistant strain (disk). Type of assay: cell-based. The conditions noted are these: strain with MIC of CLR 48 mg/L, twice repeated tests. The text has this:
Clarithromycin-resistant Helicobacter pylori was applied (red) in a medium and then a sample was made in a disk form and placed on the medium to measure the eradication effect. At this time, it was meant that if red disappeared around the disk, there was the eradication effect.

Where two headings read alike, the source gives them in different places.

As to `CC1(C)S[C@@H]2[C@H](NC(=O)[C@H](N)c3ccc(O)cc3)C(=O)N2[C@H]1C(=O)O` [Amoxicilin, amoxicillin], the resistance result with Helicobacter pylori is “less than 10%”. Consider `NCC[C@H](O)C(=O)N[C@@H]1C[C@H](N)[C@@H](O[C@H]2O[C@H](CN)[C@@H](O)[C@H](O)[C@H]2O)[C@H](O)[C@H]1O[C@H]1O[C@H](CO)[C@@H](O)[C@H](N)[C@H]1O` [amikacin], for which, in assay [1] (based on MIC 1 μg/ml), the resistant rate worked out at 61.3%. Regarding `CC[C@H]1OC(=O)[C@H](C)[C@@H](O[C@H]2C[C@@](C)(OC)[C@@H](O)[C@H](C)O2)[C@H](C)[C@@H](O[C@@H]2O[C@H](C)C[C@H](N(C)C)[C@H]2O)[C@](C)(OC)C[C@@H](C)C(=O)[C@H](C)[C@@H](O)[C@]1(C)O` [clarithromycin], the resistant rate in assay [1] amounted to 29.8%. The “eradication effect on clarithromycin-resistant H. pylori (clear zone around disk)” value in assay [2] is listed as “the clear zone was not shown”.

In turn, `C[C@H]1COc2c(N3CCN(C)CC3)c(F)cc3c(=O)c(C(=O)O)cn1c23` [levofloxacin] showed a resistant rate in assay [1] of 37.2%. Regarding `CCN[C@@H]1C[C@H](N)[C@@H](O[C@H]2OC(CN)=CC[C@H]2N)[C@H](O)[C@H]1O[C@H]1OC[C@](C)(O)[C@H](NC)[C@H]1O` [netilmicin], the resistant rate in assay [1] (based on MIC 1 μg/ml) was determined as 1.43%.

Regarding `NC[C@H]1O[C@H](O[C@H]2[C@H](O)[C@@H](O[C@H]3O[C@H](CO)[C@@H](O)[C@H](N)[C@H]3O)[C@H](N)C[C@@H]2N)[C@H](N)C[C@@H]1O` [tobramycin], the resistant rate in assay [1] (based on MIC 1 μg/ml) turned out to be 36.3%.

For gentamicin, in assay [1] (based on MIC 1 μg/ml), the resistant rate came out at 2.78%.
